Test systems include DU-145 prostate; ACHN renal; NCI-H23 lung; SNB-19 CNS; NCI-H460 lung; RPMI-8226 leukemia; M14 melanoma; NCI/ADR-RES ovarian; MALME-3M melanoma; SF-268 CNS; PC-3 prostate; EKVX NSCLC.
What all share (assay): inhibition of tumour cell growth, NCI panel, 48 h

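The compound was tested at five concentrations on cells cultured in 96-well plates, with a 48-hour exposure period. Definition used: TGI = concentration required for complete inhibition of growth.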 Some results are limits rather than exact numbers.

For the molecule `Cn1ncc2c(NCCc3ccccc3)nc(Cl)nc21`, the TGI in the assay on DU-145 prostate is > 100 µM; with ACHN renal it was > 100 µM; in the assay on NCI-H23 lung it was > 100 µM; in the assay on SNB-19 CNS it was > 100 µM; in the assay with NCI-H460 lung, 31.1 µM; in the assay on RPMI-8226 leukemia it was 47.4 µM. The TGI in the assay on M14 melanoma is 39.7 µM; in the assay on NCI/ADR-RES ovarian, 59.9 µM; in the assay on MALME-3M melanoma, > 100 µM; in the assay on SF-268 CNS, > 100 µM; with PC-3 prostate it was 71.8 µM; with EKVX NSCLC it was 23.3 µM.
Turning to `Cc1ccc(S(=O)(=O)n2ccn3c(=O)cc(C)nc23)cc1`, the TGI in the assay on DU-145 prostate, in the assay on ACHN renal, with NCI-H23 lung, in the assay with SNB-19 CNS, in the assay on NCI-H460 lung and with RPMI-8226 leukemia was > 10 µM throughout. Also, the TGI in the assay on M14 melanoma, in the assay with NCI/ADR-RES ovarian, in the assay with MALME-3M melanoma, in the assay with SF-268 CNS, with PC-3 prostate and in the assay on EKVX NSCLC was > 10 µM in each case.
For the molecule `CC(C)(C)SC1=CCC[C@@H](P(=O)(c2ccccc2)c2ccccc2)[C@@H]2CCC[C@@H]12`, the TGI in the assay with DU-145 prostate turned out to be 39.8 µM; with ACHN renal, 30.6 µM; in the assay with NCI-H23 lung it was 33.6 µM; in the assay with SNB-19 CNS, 30.9 µM; with NCI-H460 lung, 30.8 µM; in the assay with RPMI-8226 leukemia, 41.9 µM. Also, the TGI in the assay on M14 melanoma amounted to 29.5 µM; in the assay with NCI/ADR-RES ovarian, 35.1 µM; in the assay on MALME-3M melanoma, 36.3 µM; with SF-268 CNS, 35.5 µM; in the assay with PC-3 prostate it was 28.6 µM; with EKVX NSCLC, 33.7 µM.
`O=C1c2c(Br)sc(Br)c2[C@H]2NC(=S)O[C@@H]12`: the TGI came out at 30.7 µM in the assay with DU-145 prostate; 31.6 µM in the assay on ACHN renal; 29.9 µM with NCI-H23 lung; 50.8 µM in the assay with SNB-19 CNS; 38.3 µM in the assay on NCI-H460 lung; 45.5 µM in the assay on RPMI-8226 leukemia. The TGI in the assay with M14 melanoma amounted to 30.5 µM; in the assay on NCI/ADR-RES ovarian, 45.8 µM; in the assay with MALME-3M melanoma, 29.8 µM; in the assay with SF-268 CNS, 30.2 µM; in the assay with PC-3 prostate it was 27.7 µM; with EKVX NSCLC, 39.5 µM.
For the molecule `CC(C)(C)OC(=O)C(C1NC(C(=O)O)C(C)(C)S1)N1C(=O)c2ccccc2C1=O` (stereo not given), the TGI in the assay with DU-145 prostate, in the assay on ACHN renal, in the assay on NCI-H23 lung, with SNB-19 CNS, in the assay on NCI-H460 lung and in the assay on RPMI-8226 leukemia was > 100 µM in each case. In addition, the TGI with M14 melanoma, with NCI/ADR-RES ovarian, in the assay on MALME-3M melanoma, in the assay on SF-268 CNS, with PC-3 prostate and in the assay on EKVX NSCLC was > 100 µM in each case.
Consider `CC(=O)CN=C(C)NNc1ccc([N+](=O)[O-])cc1[N+](=O)[O-]`, for which the TGI in the assay with DU-145 prostate, in the assay with ACHN renal, in the assay on NCI-H23 lung, in the assay with SNB-19 CNS, in the assay with NCI-H460 lung and with RPMI-8226 leukemia was > 100 µM in each case. Besides, the TGI in the assay with M14 melanoma, in the assay with NCI/ADR-RES ovarian, in the assay on MALME-3M melanoma, with SF-268 CNS, in the assay on PC-3 prostate and in the assay with EKVX NSCLC was > 100 µM throughout.
Regarding `Nc1nc(Cl)cc(Nc2ccc3c(c2)CCC3)n1`, the TGI with DU-145 prostate is > 100 µM; with ACHN renal it was > 100 µM; with NCI-H23 lung it was > 100 µM; with SNB-19 CNS, > 100 µM; in the assay on NCI-H460 lung it was > 100 µM; in the assay with RPMI-8226 leukemia it was 65.1 µM. For the same molecule, the TGI in the assay with M14 melanoma, in the assay on NCI/ADR-RES ovarian, with MALME-3M melanoma, in the assay with SF-268 CNS, in the assay on PC-3 prostate and with EKVX NSCLC was > 100 µM throughout.
For the molecule `O=C(O)/C(=C\c1ccccc1)Cc1ccccc1`, the TGI in the assay on DU-145 prostate, with ACHN renal, in the assay on NCI-H23 lung, with SNB-19 CNS, in the assay on NCI-H460 lung and in the assay with RPMI-8226 leukemia was > 100 µM throughout. In addition, the TGI in the assay with M14 melanoma, in the assay on NCI/ADR-RES ovarian, with MALME-3M melanoma, with SF-268 CNS, with PC-3 prostate and with EKVX NSCLC was > 100 µM each time.
On to `COc1cc(CNC(=O)CCCCCCCC/C=C/Br)ccc1O`, for which the TGI with DU-145 prostate, with ACHN renal, in the assay with NCI-H23 lung, with SNB-19 CNS, with NCI-H460 lung and in the assay on RPMI-8226 leukemia was > 10 µM in each case. Further, the TGI with M14 melanoma, in the assay with NCI/ADR-RES ovarian, in the assay on MALME-3M melanoma, with SF-268 CNS, with PC-3 prostate and with EKVX NSCLC was > 10 µM each time.
Turning to `COc1cc(OC)c(/C=N/N=C(\N)NO)c(OC)c1`, the TGI in the assay on DU-145 prostate, in the assay with ACHN renal, in the assay on NCI-H23 lung, in the assay on SNB-19 CNS, with NCI-H460 lung and in the assay on RPMI-8226 leukemia was > 100 µM in each case. Moreover, the TGI with M14 melanoma, in the assay on NCI/ADR-RES ovarian, in the assay on MALME-3M melanoma, in the assay on SF-268 CNS, in the assay on PC-3 prostate and with EKVX NSCLC was > 100 µM throughout.

(Values after PubChem BioAssay (NCI).)
